Reference: PMC4597613, “Polyhedra structures and the evolution of the insect viruses” (Journal of Structural Biology, 2015)

What was measured:
CPV15 polyhedrin = CPV15 polyhedrin (Trichoplusia ni cypovirus 15, UniProt Q9ELS6); details: nucleotide trapped in crystal from Sf9 cells; two ATPs in purine cluster site, one on V3 and V2c, the other at the 2-fold axis
CPV18 polyhedrin = CPV18 polyhedrin (Operophtera brumata cypovirus 18, UniProt Q30C70); test: X-ray crystal structure of polyhedra, […] A; format: binding; details: nucleotide trapped in crystal from Sf9 cells, purine cluster
CPV20 polyhedrin = CPV20 polyhedrin (Simulium ubiquitum cypovirus, UniProt Q0MX25); test: X-ray crystal structure of polyhedra, […] A; format: binding; details: nucleotide trapped in crystal from Sf9 cells; pyrimidine region in trimer interface; not well ordered, identity inferred from space and hydrogen bonding

Q: Which results are given for `Nc1ncnc2c1ncn2[C@@H]1O[C@H](COP(=O)(O)OP(=O)(O)OP(=O)(O)O)[C@@H](O)[C@H]1O` [ATP]?
A: X-ray crystal structure of polyhedra, 1.82 A (CPV15 polyhedrin): leaving space for two ATPs in different conformations to CPV1; X-ray crystal structure of polyhedra, 1.48 A (CPV18 polyhedrin; V4 regions of two chains, H154 to phosphates): ATP is supported by two V4 regions from different polypeptide chains

Q: With `Nc1nc2c(ncn2[C@@H]2O[C@H](COP(=O)(O)OP(=O)(O)OP(=O)(O)O)[C@@H](O)[C@H]2O)c(=O)[nH]1` [GTP] as the molecule, how does the “X-ray crystal structure of polyhedra, 1.48 A” value (CPV18 polyhedrin; V2c and V1) read?
A: The value was “GTP hydrogen bonds with V2c and V1”.

Q: Which “X-ray crystal structure of polyhedra, 1.83 A” value (CPV20 polyhedrin) does the source give for `O=c1ccn([C@@H]2O[C@H](COP(=O)(O)OP(=O)(O)OP(=O)(O)O)[C@@H](O)[C@H]2O)c(=O)[nH]1` [UTP] here?
A: The value was “The pyridine in CPV20 is not well ordered, but can be identified as UTP”.
